Data published in PubChem BioAssay AID248 (DTP/NCI, 2004).
Several values for one entry are separate records, joined by “and”; a condition that tells them apart may be missing. Equal values may be shown once. Inconclusive results and toxic doses are left out. Cut-off read from the data, not from the text of the source: active = T/C of 150% or more; inactive = T/C below 125%.

System: L1210 leukemia ip in BDF1 mice, survival T/C
Experiment: NCI In Vivo Anticancer Drug Screen. Data for tumor model L1210 Leukemia (intraperitoneal) in B6D2F1 (BDF1) mice
Conditions: endpoint: mean survival time, higher = longer survival
Summary of the method: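 Read-out is survival time, reported as the treated-group measurement over the vehicle-control measurement.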

[1] = dose: 50.0 mg/kg/injection, schedule: Q01DX009 (ip), vehicle: saline with Tween-80
[2] = dose: 100.0 mg/kg/injection, schedule: Q01DX009 (ip), vehicle: saline with Tween-80
[3] = dose: 100.0 mg/kg/injection, schedule: Q04DX003 (ip), vehicle: saline with Tween-80
[4] = dose: 200.0 mg/kg/injection, schedule: Q04DX003 (ip), vehicle: saline with Tween-80
[5] = dose: 400.0 mg/kg/injection, schedule: Q04DX003 (ip), vehicle: saline with Tween-80
[6] = dose: 100.0 mg/kg/injection, schedule: Q01DX001 (ip), vehicle: saline
[7] = dose: 200.0 mg/kg/injection, schedule: Q01DX001 (ip), vehicle: saline
[8] = dose: 100.0 mg/kg/injection, schedule: Q04DX003 (ip), vehicle: saline
[9] = dose: 200.0 mg/kg/injection, schedule: Q01DX009 (ip), vehicle: saline
[10] = dose: 200.0 mg/kg/injection, schedule: Q04DX003 (ip), vehicle: saline
[11] = dose: 100.0 mg/kg/injection, schedule: Q01DX009 (ip), vehicle: Klucel (hydroxypropylcellulose) (HPC)
[12] = dose: 100.0 mg/kg/injection, schedule: Q04DX002 (ip), vehicle: Klucel (hydroxypropylcellulose) (HPC)
[13] = dose: 200.0 mg/kg/injection, schedule: Q01DX009 (ip), vehicle: Klucel (hydroxypropylcellulose) (HPC)
[14] = dose: 200.0 mg/kg/injection, schedule: Q04DX002 (ip), vehicle: Klucel (hydroxypropylcellulose) (HPC)
[15] = dose: 400.0 mg/kg/injection, schedule: Q01DX009 (ip), vehicle: Klucel (hydroxypropylcellulose) (HPC)
[16] = dose: 400.0 mg/kg/injection, schedule: Q04DX002 (ip), vehicle: Klucel (hydroxypropylcellulose) (HPC)
[17] = dose: 200.0 mg/kg/injection, schedule: Q01DX009 (ip), vehicle: saline with Tween-80
[18] = dose: 100.0 mg/kg/injection, schedule: Q01DX001 (ip), vehicle: carboxymethylcellulose (CMC)
[19] = dose: 200.0 mg/kg/injection, schedule: Q01DX001 (ip), vehicle: carboxymethylcellulose (CMC)
[20] = dose: 400.0 mg/kg/injection, schedule: Q01DX001 (ip), vehicle: carboxymethylcellulose (CMC)

Measured: T/C

CCCCCCCCCC(O)CCCC (stereo not drawn)
inactive: dose: 25.0 mg/kg/injection, schedule: Q01DX009 (ip), vehicle: saline with Tween-80 108 % of control | [1] 97 % of control | [2] 94 % of control and 98 % of control | [3] 98 % of control | [4] 98 % of control | [5] 96 % of control

CN(C)c1ccc(/C=C/C=C2\c3ccccc3-c3ccc([N+](=O)[O-])cc32)cc1
inactive: [3] 93 % of control | [4] 102 % of control | [5] 94 % of control

Cn1c([N+](=O)[O-])cnc1/C=[N+](/C)[O-]
inactive: dose: 100.0 mg/kg/injection, schedule: Q04DX002 (ip), vehicle: saline 107 % of control | dose: 200.0 mg/kg/injection, schedule: Q04DX002 (ip), vehicle: saline 100 % of control | dose: 400.0 mg/kg/injection, schedule: Q04DX002 (ip), vehicle: saline 107 % of control

COc1cc(CC(=O)N(C)C)c([N+](=O)[O-])cc1OC
inactive: [6] 87 % of control | [7] 93 % of control | dose: 400.0 mg/kg/injection, schedule: Q01DX001 (ip), vehicle: saline 93 % of control

COc1ccc2ccccc2c1C(=O)CCC(=O)O
inactive: dose: 87.0 mg/kg/injection, schedule: Q04DX003 (ip), vehicle: Klucel (hydroxypropylcellulose) (HPC) 97 % of control | dose: 175.0 mg/kg/injection, schedule: Q04DX003 (ip), vehicle: Klucel (hydroxypropylcellulose) (HPC) 93 % of control | dose: 350.0 mg/kg/injection, schedule: Q04DX003 (ip), vehicle: Klucel (hydroxypropylcellulose) (HPC) 102 % of control

Nc1nc2nc[nH]c2c(N)c1Br (tested in a mixture with another compound)
inactive: dose: 50.0 mg/kg/injection, schedule: Q01DX009 (ip), vehicle: saline 95 % of control | dose: 50.0 mg/kg/injection, schedule: Q04DX003 (ip), vehicle: saline 96 % of control | [6] 100 % of control | dose: 100.0 mg/kg/injection, schedule: Q01DX009 (ip), vehicle: saline 92 % of control | [8] 94 % of control | [7] 97 % of control | [9] 114 % of control | [10] 105 % of control

CCCCCCCCCCCCCC(=O)OCC(C)C
inactive: dose: 222.0 mg/kg/injection, schedule: Q01DX Z (ip), vehicle: saline 94 % of control | dose: 333.0 mg/kg/injection, schedule: Q01DX Z (ip), vehicle: saline 90 % of control | dose: 500.0 mg/kg/injection, schedule: Q01DX Z (ip), vehicle: saline 94 % of control

c1ccc(C(c2ccccc2)c2ccc3ccccc3n2)cc1
inactive: dose: 100.0 mg/kg/injection, schedule: Q04DX003 (ip), vehicle: acetone 90 % of control | dose: 200.0 mg/kg/injection, schedule: Q04DX003 (ip), vehicle: acetone 99 % of control | dose: 400.0 mg/kg/injection, schedule: Q04DX003 (ip), vehicle: acetone 94 % of control

COCCCNS(=O)(=O)c1ncnc2nc[nH]c12
inactive: dose: 10.0 mg/kg/injection, schedule: Q01DX Z (ip), vehicle: carboxymethylcellulose (CMC) 105 % of control | dose: 20.0 mg/kg/injection, schedule: Q01DX Z (ip), vehicle: carboxymethylcellulose (CMC) 103 % of control | dose: 25.0 mg/kg/injection, schedule: Q01DX Z (ip), vehicle: carboxymethylcellulose (CMC) 105 % of control | dose: 40.0 mg/kg/injection, schedule: Q01DX Z (ip), vehicle: carboxymethylcellulose (CMC) 103 % of control | dose: 50.0 mg/kg/injection, schedule: Q01DX Z (ip), vehicle: carboxymethylcellulose (CMC) 110 % of control | dose: 80.0 mg/kg/injection, schedule: Q01DX Z (ip), vehicle: carboxymethylcellulose (CMC) 93 % of control | dose: 100.0 mg/kg/injection, schedule: Q01DX Z (ip), vehicle: carboxymethylcellulose (CMC) 117 % of control | dose: 125.0 mg/kg/injection, schedule: Q01DX Z (ip), vehicle: carboxymethylcellulose (CMC) 88 % of control | dose: 250.0 mg/kg/injection, schedule: Q01DX Z (ip), vehicle: carboxymethylcellulose (CMC) 87 % of control

CN(C)/C=C(\C#N)C=O
inactive: dose: 75.0 mg/kg/injection, schedule: Q01DX001 (ip), vehicle: saline 103 % of control | dose: 150.0 mg/kg/injection, schedule: Q01DX001 (ip), vehicle: saline 101 % of control

CC12CCC(C1)C(C)(C)/C2=N\O (stereo not drawn)
inactive: [11] 96 % of control | [12] 100 % of control | [13] 88 % of control | [14] 96 % of control | [15] 92 % of control | [16] 96 % of control

COc1cc2c(cc1OC)C(=O)Cc1ccc3c(c1CN(C)CC2)OCO3
inactive: [11] 95 % of control | [13] 95 % of control

Nc1ncnc2nc(-c3ccc(Cl)cc3Cl)[nH]c12
inactive: dose: 6.25 mg/kg/injection, schedule: Q01DX001 (ip), vehicle: saline with Tween-80 101 % of control | dose: 12.5 mg/kg/injection, schedule: Q01DX001 (ip), vehicle: saline with Tween-80 106 % of control | dose: 25.0 mg/kg/injection, schedule: Q01DX001 (ip), vehicle: saline with Tween-80 98 % of control

COc1cc2c(cc1O)C(=O)CCC2
inactive: [1] 107 % of control | [2] 96 % of control | [17] 93 % of control

CCOC(=O)c1c(NC(C)=O)sc2c1CCCC2
inactive: [1] 108 % of control | [2] 108 % of control | [17] 95 % of control

CC(=Nc1cc(C)c(C)cc1C)c1c(O)cc(C)oc1=O
inactive: [11] 93 % of control | [12] 98 % of control | [13] 98 % of control | [14] 98 % of control | [15] 87 % of control | [16] 98 % of control

O=S(=O)(O)c1ccc2cc(N=Nc3c(O)ccc4ccccc34)ccc2c1
inactive: dose: 100.0 mg/kg/injection, schedule: Q04DX003 (ip), vehicle: carboxymethylcellulose (CMC) 95 % of control | dose: 200.0 mg/kg/injection, schedule: Q04DX003 (ip), vehicle: carboxymethylcellulose (CMC) 103 % of control | dose: 400.0 mg/kg/injection, schedule: Q04DX003 (ip), vehicle: carboxymethylcellulose (CMC) 95 % of control

COC1OC(COC(=O)OCC(Cl)(Cl)Cl)C(OC(=O)OCC(Cl)(Cl)Cl)C(OC(=O)OCC(Cl)(Cl)Cl)C1OC(=O)OCC(Cl)(Cl)Cl (stereo not drawn)
inactive: dose: 75.0 mg/kg/injection, schedule: Q01DX001 (ip), vehicle: other 90 % of control | dose: 150.0 mg/kg/injection, schedule: Q01DX001 (ip), vehicle: other 92 % of control | dose: 300.0 mg/kg/injection, schedule: Q01DX001 (ip), vehicle: other 90 % of control

COc1ccc(-c2c3c(cc4cc(OC)c(OC)cc24)C(=O)OC3=O)cc1OC
inactive: [18] 93 % of control | [19] 89 % of control | [20] 89 % of control

O=c1ccc2c(-c3cc(S(=O)(=O)O)ccc3O)c3ccc(O)cc3oc-2c1
inactive: dose: 100.0 mg/kg/injection, schedule: Q04DX003 (ip), vehicle: Klucel (hydroxypropylcellulose) (HPC) 91 % of control | dose: 200.0 mg/kg/injection, schedule: Q04DX003 (ip), vehicle: Klucel (hydroxypropylcellulose) (HPC) 89 % of control | dose: 400.0 mg/kg/injection, schedule: Q04DX003 (ip), vehicle: Klucel (hydroxypropylcellulose) (HPC) 91 % of control

O=C(Cl)OCCOCCOC(=O)Cl
inactive: [8] 86 % of control | [9] 89 % of control | [10] 94 % of control | dose: 400.0 mg/kg/injection, schedule: Q01DX009 (ip), vehicle: saline 90 % of control | dose: 400.0 mg/kg/injection, schedule: Q04DX003 (ip), vehicle: saline 92 % of control

ClCCN(CCCl)c1ccc(-c2csc(COc3ccccc3)n2)cc1
inactive: [18] 102 % of control | [19] 96 % of control | [20] 91 % of control

COC(=O)N/N=C/c1cccnc1
inactive: [11] 103 % of control | [13] 103 % of control | [15] 111 % of control

CC(CCC(=O)O)C1CCC2C3CCC4CC(OC=O)CCC4(C)C3CC(OC=O)C12C (stereo not drawn)
inactive: [1] 101 % of control | [2] 92 % of control | [3] 96 % of control | [17] 105 % of control
